Experimental findings from patent US20240116850A1, “COMPOSITIONS AND METHODS RELATED TO BICYCLO[2.2.1] HEPTANAMINE-CONTAINING COMPOUNDS” (The Broad Institute, Inc., priority 2020, published 2024) are described below.

The subject of one assay is MUC1-wt. In words: High-content imaging assay of MUC1-wt total cytoplasm intensity in P cells. The note with it: for EC50: MUC1-wt total cytoplasm intensity, P cells, 48 hr incubation; for WT ECMax: MUC1-wt, DMSO = 0, JQ1 (250 nM) = −100% activity. The assay is classed as cell-based. The method, then:
(§1) P cells were seeded 24 hr prior to compound treatment at a density of 12,000 cells/well in 384 well Cell Carrier Ultra plates (6057308, Perkin Elmer), pre-coated with 0.25 mg/mL Synthemax 11 SC Substrate (3535, Corning). Compounds were used at 5 doses (35, 3.5, 0.35, 0.035 and 0.0035 μM) for the primary screen and 10 doses (16, 5.6, 1.8, 0.6, 0.21, 0.07, 0.02, 0.008, 0.002 and 0.0008 μM) for the following screens. The compounds, in two replicates, were transferred from compound source plates to the cell plates using the HighRes Pin Tool. DMSO was used as a negative control and JQ1 (250 nM) (a bromodomain inhibitor) was chosen as a positive control, based on earlier studies showing its potent effect on reducing total MUC1 mRNA levels (data not shown). After 48 hr incubation, cells were fixed for 20 min in 4% PFA (Electron Microscopy Sciences) in PBS, washed twice, then permeabilized (10 min) with 0.5% Triton-X100 (X100-100MVL, Sigma-Aldrich) in PBS and washed once more. Cells were blocked for 10 min at RT with Blocking solution (100 mM Tris HCL pH8; l150 mM NaCL; 5 g/L Blocking Reagent [11096176001, Roche]), then incubated 90 min at RT with one of the following primary antibodies in Roche Blocking solution: 1:500, monoclonal Fab-A-V5H anti-MUC1-fs, AbD22655.2, Bio-Rad; 1:2000, monoclonal mouse anti-MUC1 (214D4), 05-652-KC, Millipore; 1:1000, monoclonal, Rabbit anti-GM130 (D6B1) XP, 12480, Cell signaling technology. The primary antibody cocktail was incubated at RT for 1.5 hr, followed by four PBS wash cycles. The secondary antibody cocktail contained four components that were all prepared at a 1:1000 dilution in the Roche blocking solution and consisted of Alexa Fluor® 488-conjugated AffiniPure F(ab′)2 Fragment Goat anti-Human IgG, 109-546-097, Jackson Immunoresearch; Alexa Fluor® 647-conjugated Goat anti-Rabbit IgG, A-21246, Thermo Fisher Scientific®; Alexa Fluor® 546 Goat anti-mouse IgG, A-21123, Thermo Fisher Scientific® and Hoechst 33342 stain (62249, Thermo Fisher Scientific®). The secondary antibody cocktail was incubated at RT for 45 min, followed by four PBS wash cycles. Finally, plates were sealed with a Plate Loc plate and stored in Liconic incubator at 10° C. until imaging. Following image analysis, three parameters were selected, i) MUC1-fs and ii) MUC1-wt total cytoplasm intensity (averaged per cell) and iii) cell number as was detected by Hoechst 33342 stained nuclei. The levels of MUC1-fs and MUC1-wt found following DMSO and JQ1 were defined as 0 and −100% activity, respectively. The values obtained for all compounds were normalized accordingly. Cell number was normalized to DMSO control.
(§2) The pure enantiomers were profiled in the high-content imaging assay for the ability to reduce the amount of FS MUC1 protein in the cytoplasm (Table 48) following the procedure of Example 4.

A further assay concerns MUC1-fs. In words: High-content imaging assay of MUC1-fs total cytoplasm intensity in P cells. In kind it is cell-based. The note with it: for EC50: MUC1-fs total cytoplasm intensity, P cells, 48 hr incubation; for ECMax: MUC1-fs, DMSO = 0, JQ1 (250 nM) = −100% activity. The method, then:
as §1, §2

[1] abbreviates: high-content imaging assay, procedure of Example 4.

The structures appear in SMILES notation. Some results are limits rather than exact numbers.

For the molecule `CC(C)C1C2CCC(C2)C1N.Cl` (racemic) [BRD4780, rac-3-exo-isopropylbicyclo[2.2.1]heptan-2-endo-amine hydrochloride, reference compound], the “reduction in wild-type MUC1 levels” value in the assay with MUC1-wt (setting [1]) was “no observed reduction”.
In the case of `Cl.N[C@@H]1[C@@H]2CC[C@@H](C2)[C@H]1C1CCC1` (racemic) [Compound 113], in the assay with MUC1-fs, it took 0.478 µM to reach a half-maximal effect (EC50) and the ECMax is on record as −46.53%. Moreover, in the assay on MUC1-wt, the 50% effective concentration (EC50) (commonly the concentration needed to bring the measured effect to its halfway point) is greater than 32 µM and the “WT ECMax” value is 13.12%.
As to `Cl.N[C@H]1[C@H]2CC[C@H](C2)[C@@H]1C1CCCC1` (single isomer, unassigned) [Compound 116-P2], in the assay with MUC1-fs, the half-maximal effective concentration (EC50) was greater than 32 µM and the ECMax is reported as −16.96%. In the assay on MUC1-wt, the EC50 was greater than 32 µM and the “WT ECMax” value is −19.89%.
As for `CCC[C@H]1[C@@H]2CC[C@@H](C2)[C@@H]1N.Cl` [Compound 107-P2], in the assay with MUC1-fs, the EC50 was greater than 32 µM and the ECMax is −9.6%. Further, in the assay on MUC1-wt, the concentration giving a half-maximal response (EC50) is greater than 32 µM and the “WT ECMax” value is listed as 8.96%.
In the case of `CCC[C@H]1[C@H]2CC[C@H](C2)[C@@H]1N.Cl` [Compound 108-P1], in the assay on MUC1-fs, the half-maximal effective concentration (EC50) was 29.9 µM and the ECMax is given as −24.9%. For the same molecule, in the assay with MUC1-wt, the concentration for a half-maximal effect (EC50) was greater than 32 µM and the “WT ECMax” value was −12.05%.
`Cl.N[C@@H]1[C@H]2CC[C@H](C2)[C@H]1C1CC1` (single isomer, unassigned) [Compound 110-P2, (1S,2R,3R,4R)-3-cyclopropylbicyclo[2.2.1]heptan-2-amine hydrochloride]: the EC50 in the assay with MUC1-fs is 3.38 µM; with MUC1-wt, greater than 32 µM.
As for `CC(C)C[C@@H]1[C@@H]2CC[C@@H](C2)[C@H]1N.Cl` (single isomer, unassigned) [Compound 112-P2], in the assay on MUC1-fs, the EC50 is greater than 32 µM and the ECMax turned out to be 13.14%. In addition, in the assay with MUC1-wt, the half-maximal effective concentration (EC50) is greater than 32 µM and the “WT ECMax” value turned out to be 7.52%.
Take `Cl.N[C@H]1[C@@H]2CC[C@@H](C2)[C@@H]1C1CCCC1` (single isomer, unassigned) [Compound 117-P1]: in the assay on MUC1-fs, the concentration for a half-maximal effect (EC50) stood at 25.9 µM and the ECMax was −16.91%. Besides, in the assay with MUC1-wt, the EC50 is greater than 32 µM and the “WT ECMax” value came to 7.72%.
For the molecule `CC(C)[C@H]1[C@H]2CC[C@H](C2)[C@@H]1N.Cl` [Compound 102], in the assay with MUC1-fs, the concentration for a half-maximal effect (EC50) stood at 8.63 µM and the ECMax is on record as −60.66%. For the same molecule, in the assay on MUC1-wt, the EC50 was greater than 32 µM and the “WT ECMax” value was −16.83%.
For the molecule `Cl.N[C@@H]1[C@H]2CC[C@H](C2)[C@H]1C1CCCC1` (single isomer, unassigned) [Compound 117-P2], in the assay on MUC1-fs, the concentration for a half-maximal effect (EC50) is greater than 32 µM and the ECMax is reported as −15.88%. Besides, in the assay on MUC1-wt, the half-maximal effective concentration (EC50) was greater than 32 µM and the “WT ECMax” value was −15.43%.
In the case of `CC(C)[C@@H]1[C@@H]2CC[C@@H](C2)[C@H]1N.Cl` [Compound 101], in the assay with MUC1-fs, the concentration for a half-maximal effect (EC50) is 0.524 µM and the ECMax is −68.74%. Also, in the assay with MUC1-wt, the EC50 worked out at 12.3 µM and the “WT ECMax” value was 18.4%.
Consider `Cl.N[C@H]1[C@H]2CC[C@H](C2)[C@@H]1C1CCCCC1` (single isomer, unassigned) [Compound 118-P2], for which, in the assay with MUC1-fs, the concentration for a half-maximal effect (EC50) is greater than 32 µM and the ECMax stood at 0%. Moreover, in the assay with MUC1-wt, the EC50 was greater than 32 µM and the “WT ECMax” value was 0%.
Consider `Cl.N[C@@H]1[C@H]2CC[C@H](C2)[C@H]1C1CCC1` (single isomer, unassigned) [Compound 114-P2], for which, in the assay with MUC1-fs, the EC50 was greater than 32 µM and the ECMax is −15.43%. Besides, in the assay on MUC1-wt, the EC50 is greater than 32 µM and the “WT ECMax” value turned out to be 9.94%.
For `Cl.N[C@H]1[C@@H]2CC[C@@H](C2)[C@@H]1C1CCC1` (single isomer, unassigned) [Compound 114-P1], in the assay on MUC1-fs, the concentration for a half-maximal effect (EC50) was found to be 29.9 µM and the ECMax was −28.1%. In the assay with MUC1-wt, the half-maximal effective concentration (EC50) was greater than 32 µM and the “WT ECMax” value came out at 5.99%.
Turning to `Cl.N[C@@H]1[C@@H]2CC[C@@H](C2)[C@H]1C1CCCC1` (single isomer, unassigned) [Compound 116-P1], in the assay on MUC1-fs, the concentration for a half-maximal effect (EC50) is greater than 32 µM and the ECMax was −10.6%. For the same molecule, in the assay with MUC1-wt, the concentration for a half-maximal effect (EC50) was greater than 32 µM and the “WT ECMax” value is listed as 18.63%.
For the molecule `Cl.N[C@@H]1[C@@H]2CC[C@@H](C2)[C@H]1c1cccs1` (racemic) [Compound 122], in the assay on MUC1-fs, the EC50 was greater than 32 µM and the ECMax was −12.17%. For the same molecule, in the assay with MUC1-wt, the EC50 was greater than 32 µM and the “WT ECMax” value was −10.53%.
For `Cl.N[C@@H]1[C@@H]2CC[C@@H](C2)[C@H]1C1CCCCC1` (racemic) [Compound 118], in the assay with MUC1-fs, the EC50 was greater than 32 µM and the ECMax is on record as −9.08%. Further, in the assay on MUC1-wt, the concentration giving a half-maximal response (EC50) is greater than 32 µM and the “WT ECMax” value is recorded as −8.52%.
On to `Cl.N[C@@H]1[C@@H]2CC[C@@H](C2)[C@H]1C1CCC1` (single isomer, unassigned) [Compound 113-P1], for which, in the assay on MUC1-fs, the EC50 was greater than 32 µM and the ECMax is listed as −13.24%. In the assay with MUC1-wt, the EC50 was greater than 32 µM and the “WT ECMax” value is −9.71%.
On to `CC(C)[C@H]1[C@H]2CC[C@H](C2)[C@H]1N.Cl` (racemic) [Compound 103, rac-3-endo-isopropylbicyclo[2.2.1]heptan-2-endo-amine hydrochloride], for which, in the assay on MUC1-fs, a half-maximal response (EC50) required 2.14 µM and the ECMax is recorded as −83.25%. Besides, in the assay with MUC1-wt, the EC50 was greater than 32 µM and the “WT ECMax” value is on record as −13.31%.
Consider `CC(C)C[C@@H]1[C@H]2CC[C@H](C2)[C@H]1N.Cl` (racemic) [Compound 111], for which, in the assay on MUC1-fs, the half-maximal effective concentration (EC50) is greater than 32 µM and the ECMax is −9.02%. Further, in the assay on MUC1-wt, the 50% effective concentration (EC50) was greater than 32 µM and the “WT ECMax” value is 10.58%.
Consider `CC(C)C[C@H]1[C@H]2CC[C@H](C2)[C@@H]1N.Cl` (single isomer, unassigned) [Compound 112-P1], for which, in the assay on MUC1-fs, the EC50 is greater than 32 µM and the ECMax was 26.46%. Moreover, in the assay with MUC1-wt, the EC50 was less than 32 µM and the “WT ECMax” value is listed as 9.15%.
The matching figures for `Cl.N[C@H]1[C@@H]2CC[C@@H](C2)[C@@H]1C1CCC1` (racemic) [Compound 114-rac]: 12.9 µM, −44.74%, greater than 32 µM and 18.3%.
Take `Cl.N[C@H]1[C@H]2CC[C@H](C2)[C@@H]1c1ccccc1` (single isomer, unassigned) [Compound 120-P2]: in the assay on MUC1-fs, the EC50 is greater than 32 µM and the ECMax is listed as −24.61%. In the assay on MUC1-wt, the EC50 is greater than 32 µM and the “WT ECMax” value is −11.21%.
Regarding `CC(C)[C@H]1[C@@H]2CC[C@@H](C2)[C@@H]1N.Cl` (single isomer, unassigned) [BRD4780 Fr1], the “FS MUC1 cytoplasm EMax (%)” value in the assay with MUC1-fs (setting [1]) is listed as −42%; in the assay on MUC1-fs (second pair of columns (c3-c4)), 113%.
For `CC(C)[C@@H]1[C@H]2CC[C@H](C2)[C@H]1N.Cl` (single isomer, unassigned) [BRD4780 Fr2, hydrochloride], the figures for the 50% inhibitory concentration (IC50) with MUC1-fs (setting [1]) and with MUC1-fs (second pair of columns (c3-c4)) were 0.175 µM and 12.6 µM, respectively.
As to `CC(C)[C@@H]1[C@H]2CC[C@H](C2)[C@H]1N.Cl` (single isomer, unassigned) [BRD4780 Fr2], the “FS MUC1 cytoplasm EMax (%)” value was −46% in the assay with MUC1-fs (setting [1]) and 60% with MUC1-fs (second pair of columns (c3-c4)).
On to `CC(C)[C@H]1[C@@H]2CC[C@@H](C2)[C@@H]1N.Cl` (single isomer, unassigned) [BRD4780 Fr1, hydrochloride], for which the figures for the 50% inhibitory concentration (IC50) with MUC1-fs (setting [1]) and in the assay on MUC1-fs (second pair of columns (c3-c4)) were 0.156 µM and 9.2 µM, respectively.
